{"source": "patent US12281079B2", "about": "“Quinoline derivatives, processes for their preparation and uses thereof for the treatment of cancer” (Lead Discovery Center GmbH, priority 2019, dated 2025)", "key": {"[1]": {"tested_on": "mitochondrial transcription (7S RNA) in HeLa cells", "experiment": "Quantitative real time-PCR assay of inhibition of mitochondrial transcription (7S RNA) in HeLa cells", "format": "cell-based", "settings": "Homo sapiens, 4 h compound incubation, according to Example 5, read-out: cellular qPCR assay", "description": "Quantitative real-time PCR (qRT-PCR), based on the TaqMan™ (Thermo Fisher Scientific, Waltham Mass.) technology, was carried out essentially as described in Held et al. (1996). HeLa cells were plated one day before compound treatment in RPMI medium supplemented with 10% Fetal Calf Serum and 2 mM L-glutamine. Cells were incubated with dilution series of compounds or vehicle (DMSO) for 4 h, prior to harvest and extraction of the RNA using the RNeasy Mini Kit (Qiagen, Hilden D), according to the manufacturer's instructions. RNA concentrations were measured spectroscopically, using a NanoDrop-2000 (Thermo Fisher Scientific, Waltham Mass.) and normalized prior to cDNA synthesis, using a ‘High-Capacity cDNA Reverse Transcription Kit’ (Thermo Fisher Scientific, Waltham Mass.). qRT-PCR was carried out using the ‘TaqMan Fast Advance Master Mix’ (Thermo Fisher Scientific, Waltham Mass.) on a 7500 Fast Real-Time PCR machine (Applied Biosystems, Foster City Calif.)\nFor these measurements, three genes were used to compare the effect of the scrutinized compounds in relation to their concentration. The POLRMT-gene was used to detect potential influences on nuclear transcription. Mitochondrial transcription in vivo was monitored by measurements 7S RNA. The TBP (TATA-box binding protein) gene was employed as the control (housekeeping gene) during qRT-PCR. The short-lived mitochondrial 7S RNA, which is not post-transcriptionally stabilized, allowed us to monitor rapid changes in mitochondrial transcription activity following compound addition. Biological triplicates were analyzed using the comparative CT Method (ΔΔCt) method (Bubner and Baldwin, 2004) and reported as Rq % values (Rq=Relative quantification=2−ΔΔCt)."}, "[2]": {"molecular_target": "mitochondrial RNA polymerase (POLRMT) (Mus musculus, UniProt Q8BKF1)", "sequence (Q8BKF1 42-1207)": "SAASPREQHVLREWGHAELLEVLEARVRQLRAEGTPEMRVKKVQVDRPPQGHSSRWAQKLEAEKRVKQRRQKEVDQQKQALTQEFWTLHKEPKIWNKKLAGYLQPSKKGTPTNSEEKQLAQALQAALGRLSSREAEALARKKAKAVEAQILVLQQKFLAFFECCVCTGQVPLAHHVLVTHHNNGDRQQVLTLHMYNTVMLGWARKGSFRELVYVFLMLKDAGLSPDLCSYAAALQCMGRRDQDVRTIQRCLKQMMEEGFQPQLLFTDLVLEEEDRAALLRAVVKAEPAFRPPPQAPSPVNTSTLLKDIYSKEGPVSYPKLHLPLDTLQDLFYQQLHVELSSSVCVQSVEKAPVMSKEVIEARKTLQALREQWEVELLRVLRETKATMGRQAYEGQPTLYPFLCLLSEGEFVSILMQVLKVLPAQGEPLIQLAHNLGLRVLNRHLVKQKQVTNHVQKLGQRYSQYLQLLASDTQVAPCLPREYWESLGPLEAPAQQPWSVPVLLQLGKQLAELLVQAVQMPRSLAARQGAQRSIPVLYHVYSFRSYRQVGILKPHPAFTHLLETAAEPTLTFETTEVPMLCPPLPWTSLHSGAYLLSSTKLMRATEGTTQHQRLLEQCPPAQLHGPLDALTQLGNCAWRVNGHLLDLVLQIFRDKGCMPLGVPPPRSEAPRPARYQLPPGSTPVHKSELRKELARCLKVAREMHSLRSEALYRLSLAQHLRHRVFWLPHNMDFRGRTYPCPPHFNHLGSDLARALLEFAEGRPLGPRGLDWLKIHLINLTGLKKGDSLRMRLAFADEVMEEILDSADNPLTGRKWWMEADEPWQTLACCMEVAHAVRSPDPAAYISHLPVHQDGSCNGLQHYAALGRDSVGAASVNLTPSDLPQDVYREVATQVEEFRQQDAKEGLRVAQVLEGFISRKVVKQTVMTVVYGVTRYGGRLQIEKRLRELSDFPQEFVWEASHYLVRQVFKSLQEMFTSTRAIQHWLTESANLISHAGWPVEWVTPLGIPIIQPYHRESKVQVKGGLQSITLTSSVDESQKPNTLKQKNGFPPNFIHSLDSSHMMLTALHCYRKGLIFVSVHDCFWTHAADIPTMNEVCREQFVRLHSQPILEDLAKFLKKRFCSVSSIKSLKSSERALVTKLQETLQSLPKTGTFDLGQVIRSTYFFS", "experiment": "Homogeneous TR-FRET assay for mitochondrial transcription activity", "format": "biochemical", "settings": "homogeneous TR-FRET assay according to Example 4", "procedure,_shortened": "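Read-out is TR-FRET (ex 340, em 665 nm) from two adjacent labelled DNA probes annealing to the 407 bp transcript after EDTA/700 mM NaCl stop. Reaction: murine POLRMT, TFAM, TFB2M and LSP plasmid template, compound 10 μM or serial dilution, 10 min rt preincubation, 500 μM each nucleotide, 2 h rt.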"}}, "note": "Where a name gives a salt, the structure may show the parent alone."}
{"smiles": "C[C@@H](Oc1ccc2c(-c3ccc(F)cc3Cl)ccnc2c1)C(=O)N1CCC[C@H](C#N)C1", "note": "[Compound 30, (3S)-1-[(2R)-2-[[4-(2-chloro-4-fluoro-phenyl)-7-quinolyl]oxy]propanoyl]piperidine-3-carbonitrile]", "values": [{"measurement": "IC50", "setting": "[1]", "result": "10 to 50", "unit": "nM"}, {"measurement": "IC50", "setting": "[2]", "result": "100 to 1000", "unit": "nM"}]}
{"smiles": "Cc1cc(-c2ccccc2C)c2ccc(O[C@H](C)C(=O)N3CCC[C@H](C(=O)O)C3)cc2n1", "note": "[Compound 31, (3S)-1-[(2R)-2-[[2-methyl-4-(o-tolyl)-7-quinolyl]oxy]propanoyl]piperidine-3-carboxylic acid]", "values": [{"measurement": "IC50", "setting": "[1]", "result": "< 10", "unit": "nM"}, {"measurement": "IC50", "setting": "[2]", "result": "100 to 1000", "unit": "nM"}]}
{"smiles": "CC(C)N(C)C(=O)[C@@H](C)Oc1ccc2c(-c3ccc(F)cc3Cl)ccnc2c1", "note": "[Compound 32, (2R)-2-[[4-(2-chloro-4-fluoro-phenyl)-7-quinolyl]oxy]-N-isopropyl-N-methyl-propanamide]", "values": [{"measurement": "IC50", "setting": "[1]", "result": "10 to 50", "unit": "nM"}, {"measurement": "IC50", "setting": "[2]", "result": "100 to 1000", "unit": "nM"}]}
{"smiles": "C[C@@H](Oc1ccc2c(-c3ccccc3Cl)cc(Cl)nc2c1)C(=O)N1CCC[C@H](C(=O)O)C1", "note": "[Compound 34, (3S)-1-[(2R)-2-[[2-chloro-4-(2-chlorophenyl)-7-quinolyl]oxy]propanoyl]piperidine-3-carboxylic acid]", "values": [{"measurement": "IC50", "setting": "[1]", "result": "10 to 50", "unit": "nM"}, {"measurement": "IC50", "setting": "[2]", "result": "100 to 1000", "unit": "nM"}]}
{"smiles": "Cc1cc(F)ccc1-c1cc(Cl)nc2cc(O[C@H](C)C(=O)N3CCC[C@H](C(=O)O)C3)ccc12", "note": "[Compound 35, (3S)-1-[(2R)-2-[[2-chloro-4-(4-fluoro-2-methyl-phenyl)-7-quinolyl]oxy]propanoyl]piperidine-3-carboxylic acid]", "values": [{"measurement": "IC50", "setting": "[1]", "result": "< 10", "unit": "nM"}, {"measurement": "IC50", "setting": "[2]", "result": "100 to 1000", "unit": "nM"}]}
{"smiles": "CC(C)OC(=O)[C@@H](C)Oc1ccc2c(-c3ccccc3Cl)ccnc2c1", "note": "[Compound 36, (R)-isopropyl 2-((4-(2-chlorophenyl)quinolin-7 yl)oxy)propanoate FA salt]", "values": [{"measurement": "IC50", "setting": "[1]", "result": "50 to 500", "unit": "nM"}, {"measurement": "IC50", "setting": "[2]", "result": "100 to 1000", "unit": "nM"}]}
{"smiles": "CNC(=O)[C@H]1CCCN(C(=O)[C@@H](C)Oc2ccc3c(-c4ccc(F)cc4Cl)ccnc3c2)C1", "note": "[Compound 38, (3S)-1-[(2R)-2-[[4-(2-chloro-4-fluoro-phenyl)-7-quinolyl]oxy]propanoyl]-N-methyl-piperidine-3-carboxamide]", "values": [{"measurement": "IC50", "setting": "[1]", "result": "10 to 50", "unit": "nM"}, {"measurement": "IC50", "setting": "[2]", "result": "100 to 1000", "unit": "nM"}]}
{"smiles": "C[C@@H](Oc1ccc2c(-c3ccc(F)cc3Cl)ccnc2c1)C(=O)N1CC[C@@H](CC(=O)O)C1", "note": "[Compound 39, 2-[(3S)-1-[(2R)-2-[[4-(2-chloro-4-fluoro-phenyl)-7-quinolyl]oxy]propanoyl]pyrrolidin-3-yl]acetic acid]", "values": [{"measurement": "IC50", "setting": "[1]", "result": "50 to 500", "unit": "nM"}, {"measurement": "IC50", "setting": "[2]", "result": "100 to 1000", "unit": "nM"}]}
{"smiles": "C[C@@H](Oc1ccc2c(-c3ccc(F)cc3Cl)ccnc2c1)C(=O)N1CC[C@H](CC(=O)O)C1", "note": "[Compound 40, 2-[(3R)-1-[(2R)-2-[[4-(2-chloro-4-fluoro-phenyl)-7-quinolyl]oxy]propanoyl]pyrrolidin-3-yl]acetic acid]", "values": [{"measurement": "IC50", "setting": "[1]", "result": "50 to 500", "unit": "nM"}, {"measurement": "IC50", "setting": "[2]", "result": "100 to 1000", "unit": "nM"}]}
{"smiles": "CCOC(=O)[C@H]1CCCN(C(=O)[C@@H](C)Oc2ccc3c(-c4ccccc4Cl)cc(F)nc3c2)C1", "note": "[Compound 41, ethyl (3S)-1-[(2R)-2-[[4-(2-chlorophenyl)-2-fluoro-7-quinolyl]oxy]propanoyl]piperidine-3-carboxylate]", "values": [{"measurement": "IC50", "setting": "[1]", "result": "500 to 5000", "unit": "nM"}, {"measurement": "IC50", "setting": "[2]", "result": "100 to 1000", "unit": "nM"}]}
{"smiles": "C[C@@H](Oc1ccc2c(-c3ccc(F)cc3Cl)ccnc2c1)C(=O)N1CCCC1", "note": "[Compound 42, (2R)-2-[[4-(2-chloro-4-fluoro-phenyl)-7-quinolyl]oxy]-1-pyrrolidin-1-yl-propan-1-one]", "values": [{"measurement": "IC50", "setting": "[1]", "result": "50 to 500", "unit": "nM"}, {"measurement": "IC50", "setting": "[2]", "result": "100 to 1000", "unit": "nM"}]}
{"smiles": "C[C@@H](Oc1ccc2c(-c3ccc(F)cc3Cl)ccnc2c1)C(=O)N(C)C", "note": "[Compound 45, (2R)-2-[[4-(2-chloro-4-fluoro-phenyl)-7-quinolyl]oxy]-N,N-dimethyl-propanamide]", "values": [{"measurement": "IC50", "setting": "[1]", "result": "50 to 500", "unit": "nM"}, {"measurement": "IC50", "setting": "[2]", "result": "100 to 1000", "unit": "nM"}]}
{"smiles": "O=C(O)[C@H]1CCCN(C(=O)COc2ccc3c(-c4ccccc4Cl)ccnc3c2)C1", "note": "[Compound 46, (3S)-1-[2-[[4-(2-chlorophenyl)-7-quinolyl]oxy]acetyl]piperidine-3-carboxylic acid]", "values": [{"measurement": "IC50", "setting": "[1]", "result": "50 to 500", "unit": "nM"}, {"measurement": "IC50", "setting": "[2]", "result": "100 to 1000", "unit": "nM"}]}
